Results reported in paper PMC11123039, “The Helix Ring Peptide U11 from the Venom of the Ant, Tetramorium bicarinatum, Acts as a Putative Pore-Forming Toxin” (Membranes, 2024).

Tests used:
[1] = test system: voltage-gated sodium (Nav) channels; conditions: vertebrates and invertebrates; blocks synaptic transmission in insect CNS; cited from earlier work
Description: Ant venom peptides have previously been classified based on their structure into three main groups: linear, dimeric or inhibitor cystine knot (ICK)-like peptides [for a review, see [2]]. An alternative approach for classification follows their biological activity, with two main characteristics: cytolytic or neurotoxic. […] They often act as amphipathic, helical structures forming pores through biological membranes, disturbing t ...

Shaker IR = experiment: Two-electrode voltage clamp, Shaker IR; assay type: cell-based, Drosophila melanogaster; conditions: control toxin, 2.5 μM; Xenopus laevis oocytes, ND96, two-electrode voltage clamp
[2] = test system: vertebrate and invertebrate cells; conditions: component of Apis mellifera venom; cited from earlier work
Description: Ant venom peptides have previously been classified based on their structure into three main groups: linear, dimeric or inhibitor cystine knot (ICK)-like peptides [for a review, see [2]]. An alternative approach for classification follows their biological activity, with two main characteristics: cytolytic or neurotoxic. […] Such a phenomenon is indicative of cytolysis or cytotoxicity and may be explained by pore formation. […] In non-injected control oocytes, the current ...

For poneratoxin, the “modulation of Nav channels” value [1] is given as “modulate voltage-gated sodium (Nav) channels of both vertebrates and invertebrates”.
For charybdotoxin, the “block of Shaker IR currents” value (Shaker IR) was “clear block”.
In the case of melittin, the “cytolysis via pore formation” value [2] is given as “cytolysis via a process of pore formation”.
